The text below walks through data of US7705016B2, “Regulation of food intake by modulation of long-chain fatty acyl-CoA levels in the hypothalamus” (Albert Einstein College of Medicine of Yeshiva University, priority 2003, dated 2010).

Data set [1] relates to NPY, AgRP and POMC mRNA in ARC. Nature of the data set: Neuropeptide (NPY, AgRP, POMC) mRNA in ARC by real-time PCR. The class given is in vivo, rat. The note with it: ICV. The source says: In order to begin investigating the mechanisms responsible for the anorectic properties of ARC CPT1 inhibition, we next analyzed the effect of CPT1L-Ribo on the gene expression of key ARC peptides. […] Overall, these anorectic effects support the notion that changes in the neuronal levels of LC-CoAs may directly control food intake via their action on discrete hypothalamic centers. Furthermore, increases in LC-CoAs levels in selective hypothalamic neurons are likely to account for the potent effects of oleic acid and of FAS inhibitors on food intake (Loftus et al., 2000; Obici et al., 2002a; Makimura et al., 2001; Shimokawa et al., 2002).
Total RNA was isolated with Trizol (Invitrogen, Carlsbad, Calif.) from individual hypothalamic nuclei (i.e. Arcuate, PVN etc.). Single strand cDNA synthesis and real-time PCR reactions were performed as previously described (Obici et al., 2002b). CPT1L and CPT1M mRNA specific primers contained the following sequences: CPT1L forward (F) 5′-[…]-3′ (SEQ ID NO:5) and reverse (R) primer, 5′-[…]-3′ (SEQ ID NO:6); CPT1M F 5′-[…]-3′ (SEQ ID NO:7) and R 5′-[…]-3′ (SEQ ID NO:8). Hypothalamic neuropeptides expression was performed by real-time PCR using the following primers: NPY-F 5′-[…]-3′ (SEQ ID NO:9), R 5′-[…]-3′ (SEQ ID NO:10), POMC-F 5′-CCAGGCAACGGAGATGAAC-3′ (SEQ ID NO:11), R 5′-TCACTGGCCCTTCTTGTGC-3′ (SEQ ID NO:12), AgRP-F 5′-[…]-3′ (SEQ ID NO:13), R 5′-[…]-3′ (SEQ ID NO:14), and β-actin F 5′-[…]-3′ (SEQ ID NO:15), R 5′-[…]-3′ (SEQ ID NO:16). Transcript levels are expressed as copy number of each gene normalized to copy number for β-actin. Copy number for each transcript was measured against a standard curve, which was obtained by PCR runs of each primer set with serial dilutions of a plasmid containing the target template sequences.
(In qPCR the cycle at which signal appears reflects the starting amount.)

Data set [2] relates to male Sprague-Dawley (S-D) rats. Nature of the data set: ICV OA infusion with pancreatic-insulin clamp (insulin action studies). It is filed as in vivo, rat. The settings on record: for effect on GP: over-fed rats (HF140). The source says: Insulin action studies. The experimental protocol herein was designed to examine the effect of nutritional status on the ability of long-chain fatty acids in the hypothalamus to modulate carbohydrate metabolism. Rats (n=43) were implanted with chronic catheters as previously described (Liu et al., 1998). After full recovery from the catheterization, animals were randomized into three groups HF55 (n=16), HF80 (n=9), or HF140 (n=18) and were allowed to consume their allocated diet for three days. On the night prior to the in vivo study all rats received 55 kcal to ensure a similar nutritional state at the start of the metabolic studies. All studies were performed in awake, unstressed, chronically catheterized rats. At t=−120 (FIG. 7a), a primed-continuous infusion of ICV OA (total dose 30- or 300-nmol) or Vehicle (HBP 10% in aCSF) was initiated and maintained throughout the duration of the study. Plasma glucose was measured periodically initiating at the onset (t=−120) of the ICV infusion and lasting throughout the duration of the study. Plasma samples for determination of insulin, leptin, and non-esterified fatty acid concentration were obtained at the onset (t=−120) and at 30 min intervals during the study. At t=0, and a primed-continuous infusion of HPLC-purified [3-3H]-glucose (New England Nuclear, Boston, Mass.; 40 μCi bolus, 0.4 μCi/min for duration of the study) was initiated and maintained for the last four hours of the study. Samples for determination of ^3H-glucose specific activity were obtained at 10-minute intervals throughout infusions. Finally, at t=120, a pancreatic-insulin clamp study was initiated and maintained for two hours. During this procedure, a primed-continuous infusion of regular insulin (1 mU/kg/min) was administered, and a variable infusion of 25% glucose solution was started at t=120 and periodically adjusted to clamp the plasma glucose concentration at ˜7 mM. The rate of insulin infusion was designed to replace the plasma insulin concentration at ˜the average basal levels in post-absorptive rats. In order to control for possible effects of the ICV injections on endocrine pancreas, somatostatin (3 μg/kg/min) was coinfused with insulin to inhibit endogenous insulin secretion. At the end of the in vivo studies, rats were anesthetized (pentobarbital 55 mg/kg body weight, intravenously) and tissue samples were freeze-clamped in situ with aluminum tongs pre-cooled in liquid nitrogen. All tissue samples were stored at −80° C. for subsequent analysis.
Analytical Procedures and Calculations. Plasma glucose was measured by the glucose oxidase method (Glucose Analyzer II, Beckman Instruments, Inc. Fullerton, Calif., USA). Plasma insulin and leptin levels were determined by RIA (rat Leptin RIA kit, Linco Research Inc., St. Charles, Mo.). Serum adiponectin was measured by RIA (Linco Research, Inc., St. Charles, Mo.). Plasma non-esterified fatty acid concentrations were determined an enzymatic method by an automated kit according to the manufacturer's specifications (Waco Pure Chemical Industries. Osaka, Japan). The radioactivity of [3-^3H]glucose in plasma was measured from supernatants of Ba (OH)2 and from ZnSO4 precipitates (Somogyi procedure), after each was evaporated to dryness for the removal of tritiated water. […]

Data set [3] concerns rats. The settings on record: rats fed standard chow, prolonged (16 h) fasting; cited from earlier work.

Where “and” joins values, the source holds several entries; their conditions need not be identical. Equal values may be shown once. Entries after “also recorded” stand apart in the source; their conditions may differ.

Regarding “CPT1L-Ribo: plasmid (pTarget, CMV promoter) expressing a hammerhead ribozyme that specifically cleaves rat CPT1L mRNA, complexed to PEI for ICV injection (DNA CUGUACCAAAGAGCUGUAGAGUCCGUGAGGACGAAACGCCGCUCACAAUG)”, in data set [1], the “expression of POMC in the ARC” value was “not significantly altered”. Moreover, in data set [1] (compared with Control-Ribo), the “AgRP mRNA in the ARC” value is listed as “marked decrease” and the “NPY mRNA in the ARC” value is given as “marked decrease”.
In the case of `CCCCCCCC/C=C\CCCCCCCC(=O)O` [OA, oleic acid], the “inhibition of GP, decrease from basal” value in data set [2] (HF55, ICV OA 30 nmol) worked out at 71%. Also, the “GIR required to maintain euglycemia” value in data set [2] (HF80, ICV OA 30 nmol) was 4.64 mg/kg/min and ~9 mg/kg/min. In addition, the “effect on GP” value in data set [2] (ICV OA 30 nmol) was “failed to significantly alter GP”; in data set [2] (ICV OA 300 nmol) it was “failed to significantly decrease GP; also recorded: failed to significantly alter GP”. Moreover, in data set [2] (pancreatic-insulin clamp, any of the experimental groups), the “rate of glucose disappearance (Rd)” value is reported as “did not significantly modify; also recorded: not significantly affected”. In addition, in data set [3], the “decrease in hypothalamic NPY mRNA compared with ICV vehicle” value is reported as roughly 50%.
